Among the data in ChEMBL document CHEMBL4622952, “Synthesis and biological evaluation of Schizandrin derivatives as tubulin polymerization inhibitors” (Bioorg Med Chem Lett, 2020) are IC50 and inhibition values, retold here.

Assay [1] in a line: (§1) Antiproliferative activity against human RKOP3 cells assessed as reduction in cell viability measured after 48 hrs by MTT assay. The class given is functional, cell-based. A general note: Formazan colour is commonly taken as a measure of viable cells.
The species named for a further assay is Homo sapiens. The description is as §1. Type of assay: functional, cell-based.
Another assay has as its system DU-145. The experiment in a line: Antiproliferative activity against human DU145 cells assessed as reduction in cell viability measured after 48 hrs by MTT assay. As to conditions: for IC50: DU-145, 48 h. The class given is functional, cell-based.
A further assay relates to HEK293. As to the kind of experiment: Cytotoxicity against human HEK293 cells assessed as reduction in cell viability measured after 48 hrs by MTT assay. Particulars: Homo sapiens, HEK293, 48 h; read-out: IC50. Type of assay: cell-based.
In a further assay the test system is HeLa. The experiment in a line: Antiproliferative activity against human HeLa cells assessed as reduction in cell viability measured after 48 hrs by MTT assay. The class given is functional, cell-based.
For a further assay, the system named is A549. The experiment in a line: Antiproliferative activity against human A549 cells assessed as reduction in cell viability measured after 48 hrs by MTT assay. The class given is functional, cell-based. As to conditions: for IC50: A549, 48 h.

What is called IC50 is the concentration needed to halve the response being measured. As for `COC1=C(OC)C23C(=CC1=O)C[C@H](C)[C@@]2(C)Cc1cc(OC)c(OC)c(OC)c13` (stereo partly drawn), the IC50 stood at 50.5 µM in assay [1]; 9.6 µM in the assay on DU-145; 49.7 µM in the assay on HEK293; 4.23 µM in the assay with HeLa; 7.8 µM with A549. In addition, the inhibition result in the assay listed under Homo sapiens, in the assay on DU-145, in the assay on HeLa and in the assay with A549 was “Dose-dependent effect” throughout.

Consider `COC1=C(OC)C23C(=C/C1=N\OC(=O)c1ccc(Br)cc1)C[C@H](C)[C@@]2(C)Cc1cc(OC)c(OC)c(OC)c13` (stereo partly drawn), for which the half-maximal inhibitory concentration (IC50) was 9.7 µM in assay [1]; 20.3 µM with DU-145; 135 µM with HEK293; 7.4 µM in the assay with HeLa; 5.92 µM with A549. Further, the inhibition entry in the assay listed under Homo sapiens, in the assay with DU-145, in the assay on HeLa and in the assay with A549 was “Dose-dependent effect” in each case.

As for `COC1=C(OC)C23C(=C/C1=N\OC(=O)c1ccc(F)cc1)C[C@H](C)[C@@]2(C)Cc1cc(OC)c(OC)c(OC)c13` (stereo partly drawn), the IC50 in assay [1] was determined as 20.9 µM; with DU-145, 16.6 µM; in the assay on HEK293, 81.6 µM; in the assay with HeLa, 5.5 µM; in the assay on A549, 9.02 µM. The inhibition entry in the assay listed under Homo sapiens, with DU-145, with HeLa and in the assay with A549 was “Dose-dependent effect” each time.

In the case of `COc1cc2c(c(OC)c1OC)-c1c(cc(OC)c(OC)c1OC)C[C@](C)(O)[C@@H](C)C2` [SCHIZANDRIN], the IC50 was found to be 5.36 µM in assay [1]; 5.38 µM with DU-145; 80.5 µM in the assay with HEK293; 5.06 µM in the assay on HeLa; 8.5 µM in the assay on A549. Besides, the inhibition entry in the assay listed under Homo sapiens, with DU-145, in the assay on HeLa and in the assay with A549 was “Dose-dependent effect” throughout.

`COC1=C(OC)C23C(=C/C1=N\OC(=O)C1CC1)C[C@H](C)[C@@]2(C)Cc1cc(OC)c(OC)c(OC)c13` (stereo partly drawn): the IC50 in assay [1] came to 60 µM; in the assay on DU-145, 50.5 µM; in the assay on HEK293, 65.9 µM; with HeLa, 15.2 µM; in the assay with A549, 7.8 µM. Further, the inhibition result in the assay filed under Homo sapiens, in the assay with DU-145, in the assay with HeLa and with A549 was “Dose-dependent effect” in each case.

Turning to `COC1=C(OC)C23C(=C/C1=N\O)C[C@H](C)[C@@]2(C)Cc1cc(OC)c(OC)c(OC)c13` (stereo partly drawn), the IC50 amounted to 55.9 µM in assay [1]; 7.55 µM in the assay on DU-145; 54.8 µM with HEK293; 50.1 µM in the assay with HeLa; 8.52 µM in the assay with A549. Further, the inhibition entry in the assay filed under Homo sapiens, in the assay on DU-145, in the assay on HeLa and with A549 was “Dose-dependent effect” each time.

With `COC1=C(OC)C23C(=C/C1=N\OC(=O)C(C)C)C[C@H](C)[C@@]2(C)Cc1cc(OC)c(OC)c(OC)c13` (stereo partly drawn), the IC50 in assay [1] is 15.4 µM; with DU-145, 25.5 µM; in the assay on HEK293, 80.5 µM; in the assay on HeLa it was 4.74 µM; in the assay with A549, 6.08 µM. Besides, the inhibition entry in the assay filed under Homo sapiens, in the assay with DU-145, in the assay with HeLa and in the assay on A549 was “Dose-dependent effect” in each case.
